# Reference: publication PMC8092876, “A Leucyl-tRNA Synthetase Inhibitor with Broad-Spectrum Antimycobacterial Activity” (Antimicrobial Agents and Chemotherapy, 2021)
# Where “and” joins values, the source holds several entries; their conditions need not be identical. Equal values may be shown once. Read-outs that look alike come from different tables or passages of the source.
# Key:
# [1] = test system: M. abscessus subsp. abscessus M422; assay: MIC assay in 96-well plate format; assay type: cell-based; settings: Mycobacteroides abscessus; M. abscessus subsp. abscessus M422, clinical isolate
# [2] = test system: M. abscessus Bamboo RM3 (LeuS V417M); assay: microbe, parasite or virus in culture; assay type: cell-based; settings: Mycobacteroides abscessus, RM3, batch 1, LeuS V417M
# [3] = test system: M. abscessus Bamboo RM1 (LeuS A428P); assay: microbe, parasite or virus in culture; assay type: cell-based; settings: Mycobacteroides abscessus
# [4] = test system: M. chimaera CCUG 50989T; assay: MIC assay in 96-well plate format; assay type: cell-based; settings: CCUG50989T, culture collection reference strain
# [5] = test system: M. abscessus subsp. abscessus M199; assay: MIC assay in 96-well plate format; assay type: cell-based; settings: Mycobacteroides abscessus; M. abscessus subsp. abscessus M199, clinical isolate
# [6] = test system: M. abscessus subsp. massiliense CCUG 48898T; assay: MIC assay in 96-well plate format; assay type: cell-based; settings: Mycobacteroides abscessus, culture collection reference strain
# [7] = test system: M. abscessus Bamboo; assay: MIC and MBC determination in culture tubes (planktonic)
# Procedure: M. abscessus Bamboo culture was grown to mid-log-phase (OD600 = 0.4 to 0.6) and diluted to OD600 = 0.1 (1 × 10^7 CFU/ml). Aliquots of 1.2 ml of the resulting bacteria suspension were transferred into 14 ml vented, round-bottom tubes (Thermo Fisher 150268, Rochester, NY, United States). A 10-point 2-fold dilution series of the compound was prepared, starting at 100 times the desired highest concentration. The compound concentration range tested was 100 to 0.195 μM. For each drug concentration tested, 12 μl of drug stock was added to two tubes and vortexed. Aliquots of 12 μl of DMSO were added to two tubes as the untreated controls (1% final DMSO concentration). From each tube, 200 μl was transferred to wells on a 96-well plate and the OD600 was measured using a Tecan Infinite M200 plate reader (day 0 reading). The tubes (1 ml final volume) were incubated on a tilted rack at 37°C on an orbital shaker at 220 rpm. On day 2, tubes were vortexed before transferring 200 μl onto a 96-well plate to measure the OD600 again (day 2 reading). To determine the MIC, day 0 and day 2 OD600 values were analyzed as previously described for MIC determination in 96-well plate format. To determine the MBC, CFU measurement was done for the OD600 = 0.1 bacteria suspension on day 0 and for each tube on day 2. Specifically, serial 10-fold dilutions were prepared in phosphate-buffered saline (Thermo Fisher 10010023) containing 0.025% Tween 80 (PBS/Tween 80) and plated on 7H10 agar. The MBC was defined as the lowest concentration of drug that reduced the CFU/ml value by 10-fold relative to the day 0 CFU/ml value.
# [8] = test system: M. abscessus subsp. abscessus ATCC 19977; assay: MIC assay in 96-well plate format; assay type: cell-based; settings: Mycobacteroides abscessus, ATCC19977; M. abscessus subsp. abscessus ATCC 19977, culture collection reference strain
# [9] = test system: M. abscessus subsp. massiliense M111; assay: MIC assay in 96-well plate format; assay type: cell-based; settings: Mycobacteroides abscessus; M. abscessus subsp. massiliense M111, clinical isolate
# [10] = test system: M. abscessus subsp. abscessus M337; assay: MIC assay in 96-well plate format; assay type: cell-based; settings: Mycobacteroides abscessus; M. abscessus subsp. abscessus M337, clinical isolate
# [11] = test system: M. abscessus subsp. bolletii CCUG 50184T; assay: MIC assay in 96-well plate format; assay type: cell-based; settings: Mycobacteroides abscessus, culture collection reference strain
# [12] = test system: M. abscessus subsp. bolletii M506; assay: MIC assay in 96-well plate format; assay type: cell-based; settings: Mycobacteroides abscessus; M. abscessus subsp. bolletii M506, clinical isolate
# [13] = test system: M. abscessus subsp. abscessus K21; assay: MIC assay in 96-well plate format; assay type: cell-based; settings: Mycobacteroides abscessus; M. abscessus subsp. abscessus K21, clinical isolate, infection model
# [14] = test system: M. intracellulare ATCC 13950; assay: MIC assay in 96-well plate format; assay type: cell-based; settings: Mycobacterium intracellulare, ATCC13950; M. intracellulare ATCC 13950, culture collection reference strain
# [15] = test system: M. abscessus subsp. abscessus M9; assay: MIC assay in 96-well plate format; assay type: cell-based; settings: Mycobacteroides abscessus; M. abscessus subsp. abscessus M9, clinical isolate
# [16] = test system: M. abscessus subsp. abscessus M404; assay: MIC assay in 96-well plate format; assay type: cell-based; settings: Mycobacteroides abscessus; M. abscessus subsp. abscessus M404, clinical isolate
# [17] = test system: M. avium 11; assay: MIC assay in 96-well plate format; assay type: cell-based, M. avium subsp. hominissuis
# [18] = test system: M. abscessus subsp. bolletii M232; assay: MIC assay in 96-well plate format; assay type: cell-based; settings: Mycobacteroides abscessus; M. abscessus subsp. bolletii M232, clinical isolate
# [19] = test system: M. abscessus Bamboo RM5 (LeuS V417M); assay: microbe, parasite or virus in culture; assay type: cell-based; settings: Mycobacteroides abscessus, RM5, batch 2, LeuS V417M
# [20] = test system: M. abscessus Bamboo RM4 (LeuS T327R); assay: microbe, parasite or virus in culture; assay type: cell-based; settings: Mycobacteroides abscessus
# [21] = test system: M. abscessus Bamboo RM2 (LeuS K502E); assay: microbe, parasite or virus in culture; assay type: cell-based; settings: Mycobacteroides abscessus
# [22] = test system: M. abscessus Bamboo biofilms; assay: Biofilm growth inhibition assay (biofilm MIC and MBC); assay type: cell-based, M. abscessus subsp. abscessus; settings: Mycobacteroides abscessus
# Procedure: The biofilm growth inhibition assay was performed as previously described ([40]). Innovotech MBEC 96-well biofilm assay plates (Innovotech 19111, Edmonton, AB, Canada) were used, and the supplier’s manual was followed with minor modifications. Mid-log-phase M. abscessus Bamboo precultures (OD600 = 0.4 to 0.6) were spun down at 3200 × g for 10 min at 25°C and washed with 7H9 medium without Tween 80 (7H9nt). Bacteria were resuspended into 25 ml 7H9nt to an OD600 of 0.0125 (1.0 × 10^6 CFU/ml). […] The lids with the pegs were transferred to a new MBEC multititer plate containing 150 μl of fresh 7H9nt medium per well without bacteria (0 h time point). After that, the pegs with growing biofilm were transferred once a day to a new multititer plate containing fresh 7H9nt medium. To measure growth of the biofilm formed on the peg, the pegs were washed in 200 μl of 7H9nt medium before they were aseptically removed and placed in 1.7 ml microcentrifuge tubes (VWR 87003-294, Rador, PA, United States) containing 500 μl PBS/Tween 80. The microcentrifuge tubes were vigorously vortexed at 2,000 rpm for 90 s at 25°C to detach the bacteria from the pegs before samples were serially diluted and plated for the determination of CFU/peg. […] The average drug-free biofilm growth was calculated by subtracting the average 24 h CFU/peg value from the average 72 h CFU/peg value for the untreated control pegs. The biofilm MIC was defined as the lowest drug concentration that reduced the CFU/peg by 90% relative to that of the average drug-free biofilm growth.
# [23] = test system: M. abscessus Bamboo; assay: MIC assay in 96-well plate format; assay type: cell-based, M. abscessus subsp. abscessus; settings: Mycobacteroides abscessus
# [24] = test system: M. tuberculosis H37Rv ATCC 27294; design: method as in PMID 28953378; settings: 7H9; cited from earlier work
# [25] = test system: M. tuberculosis H37Rv ATCC 27294; assay: MIC assay in 96-well plate format; assay type: cell-based; settings: Mycobacterium tuberculosis, 168 h
structure (smiles),measurement,setting,value
"CC[C@H]1OC(=O)[C@H](C)[C@@H](O[C@H]2C[C@@](C)(OC)[C@@H](O)[C@H](C)O2)[C@H](C)[C@@H](O[C@@H]2O[C@H](C)C[C@H](N(C)C)[C@H]2O)[C@](C)(OC)C[C@@H](C)C(=O)[C@H](C)[C@@H](O)[C@]1(C)O [CLR, clarithromycin, reference compound]",MIC,[1],0.65 µM
same,MIC,[2],0.43 µM
same,MIC,[3],0.36 µM
same,MIC,[4],0.19 µM
same,MIC,[5],2.7 µM
same,MIC,[6],0.19 µM
same,MBC,[7]; Mycobacteroides abscessus,> 100 µM
same,MIC,"[7]; Mycobacteroides abscessus, 48 h",0.28 µM
same,MBC,"[7]; planktonic M. abscessus Bamboo in culture tubes, day 2, 10-fold CFU/ml reduction vs day 0",>100 µM
same,MIC,[8],0.9 µM
same,MIC,[9],0.24 µM
same,MIC,[10],0.9 µM
same,MIC,[11],2.5 µM
same,MIC,[12],0.28 µM
same,MIC,[13],0.4 µM
same,MIC,[14],0.15 µM
same,MIC,[15],0.73 µM
same,MIC,[16],0.2 µM
same,MIC,"[17]; Mycobacterium avium, 96 h, M. avium 11, 7H9, 4 days, read-out: MIC",0.3 µM
same,MIC,[18],0.95 µM
same,MIC,[19],0.46 µM
same,MIC,[20],0.42 µM
same,MIC,[21],0.38 µM
same,MBC,[22]; 10-fold CFU/peg reduction vs 24 h,> 100 µM
same,MIC,"[22]; 48 h with drug, 90% reduction of CFU/peg growth",1.6 µM
same,MIC,[23],0.31 µM
same,MIC,"[23]; 72 h, M. abscessus Bamboo, 7H9, 3 days, read-out: MIC",0.23 µM
same,MIC,"[23]; 72 h, M. abscessus Bamboo, CAMH broth, 3 days, read-out: MIC",0.07 µM
"NC[C@H]1OB(O)c2c(OCCO)ccc(Cl)c21 [GSK656, (S)-3-(aminomethyl)-4-chloro-7–(2-hydroxyethoxy)benzo[c][1,2]oxaborol-1(3H)-ol]",MIC,[24],0.08 μM and 0.08^d μM
same,MIC,"[17]; Mycobacterium avium, 11, 96 h",> 50 µM
same,MIC,"[23]; 72 h, read-out: MIC",0.27 µM
"CO[C@H]1/C=C/O[C@@]2(C)Oc3c(C)c(O)c4c(O)c(c(/C=N/N5CCN(C)CC5)c(O)c4c3C2=O)NC(=O)/C(C)=C\C=C\[C@H](C)[C@H](O)[C@@H](C)[C@@H](O)[C@@H](C)[C@H](OC(C)=O)[C@@H]1C [rifampin, reference compound]",MIC,[25],0.66 µM
